From ChEMBL document CHEMBL1132928 (J Med Chem, 2000) come the findings set out here.

Assay [1] concerns the target Glucagon receptor (Rattus norvegicus, UniProt P30082). The experiment in a line: In vitro receptor binding affinity (95% CL) using rat liver plasma membrane bioassay.
The target in assay [2] is Adenylate cyclase type 5 (Rattus norvegicus) (UniProt Q04400). The experiment in a line: Percent stimulation ofcAMP production was measured in vitro using rat liver plasma membrane bioassay; none. The assay is classed as functional, cell-free.
In assay [3] the target is Glucagon receptor (Rattus norvegicus) (UniProt P30082). The experiment in a line: In vitro receptor binding affinity using rat liver plasma membrane bioassay; inactive.
Assay [4] in a line: In vitro adenylate cyclase activity using rat liver plasma membrane bioassay. Value is inactive up to 50 uM.
A short description of assay [5]: In vitro adenylate cyclase activity using rat liver plasma membrane bioassay. Type of assay: tissue-based.
Assay [6] has as its target Adenylate cyclase type 5 (Rattus norvegicus) (UniProt Q04400). The experiment in a line: Percent stimulation ofcAMP production was measured in vitro using rat liver plasma membrane bioassay. Type of assay: functional, cell-free.
The nature of assay [7]: pA2 values were obtained from the dose / response plots. Type of assay: ADME.

Activity calls are given as the source filed them. The calls are words filed in the database; no cut-off is given here. Where a SMILES comes first, the peptide text is derived from it. Bridges are numbered along the chain shown (N, C = ends).

Chain of Adenylate cyclase type 5 (Rattus norvegicus) (Q04400 whole entry): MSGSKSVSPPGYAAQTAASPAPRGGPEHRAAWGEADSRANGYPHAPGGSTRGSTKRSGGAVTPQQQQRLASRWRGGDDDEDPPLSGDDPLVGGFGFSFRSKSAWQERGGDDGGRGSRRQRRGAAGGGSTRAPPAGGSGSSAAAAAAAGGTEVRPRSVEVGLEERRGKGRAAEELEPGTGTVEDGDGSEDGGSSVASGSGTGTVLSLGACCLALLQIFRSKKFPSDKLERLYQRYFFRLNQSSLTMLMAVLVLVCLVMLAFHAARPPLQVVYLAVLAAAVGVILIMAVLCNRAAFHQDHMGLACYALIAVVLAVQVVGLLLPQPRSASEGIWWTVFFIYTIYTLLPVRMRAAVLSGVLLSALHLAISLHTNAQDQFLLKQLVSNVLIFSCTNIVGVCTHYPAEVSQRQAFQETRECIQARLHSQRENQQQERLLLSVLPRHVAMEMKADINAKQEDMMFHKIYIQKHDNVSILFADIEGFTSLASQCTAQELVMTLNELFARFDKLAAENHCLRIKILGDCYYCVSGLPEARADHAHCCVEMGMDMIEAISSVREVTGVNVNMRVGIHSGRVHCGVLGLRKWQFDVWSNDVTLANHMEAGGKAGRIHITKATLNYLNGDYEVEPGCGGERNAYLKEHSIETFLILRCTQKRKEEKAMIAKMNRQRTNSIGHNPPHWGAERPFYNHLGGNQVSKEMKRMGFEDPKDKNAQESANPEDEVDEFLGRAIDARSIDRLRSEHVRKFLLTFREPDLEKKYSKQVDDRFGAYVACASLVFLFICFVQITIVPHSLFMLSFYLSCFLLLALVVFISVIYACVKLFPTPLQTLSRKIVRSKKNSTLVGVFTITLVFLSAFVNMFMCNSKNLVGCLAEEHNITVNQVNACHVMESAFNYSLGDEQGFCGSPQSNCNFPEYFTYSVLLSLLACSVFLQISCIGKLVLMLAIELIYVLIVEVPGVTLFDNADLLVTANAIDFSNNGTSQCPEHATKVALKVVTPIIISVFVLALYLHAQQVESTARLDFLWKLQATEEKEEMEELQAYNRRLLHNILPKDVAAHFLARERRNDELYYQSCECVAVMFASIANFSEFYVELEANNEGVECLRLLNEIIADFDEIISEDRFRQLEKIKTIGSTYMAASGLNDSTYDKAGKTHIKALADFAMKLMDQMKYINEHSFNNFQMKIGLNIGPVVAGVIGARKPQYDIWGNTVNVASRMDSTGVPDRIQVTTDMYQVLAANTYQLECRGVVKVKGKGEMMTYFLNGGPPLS
Chain of Glucagon receptor (P30082 whole entry): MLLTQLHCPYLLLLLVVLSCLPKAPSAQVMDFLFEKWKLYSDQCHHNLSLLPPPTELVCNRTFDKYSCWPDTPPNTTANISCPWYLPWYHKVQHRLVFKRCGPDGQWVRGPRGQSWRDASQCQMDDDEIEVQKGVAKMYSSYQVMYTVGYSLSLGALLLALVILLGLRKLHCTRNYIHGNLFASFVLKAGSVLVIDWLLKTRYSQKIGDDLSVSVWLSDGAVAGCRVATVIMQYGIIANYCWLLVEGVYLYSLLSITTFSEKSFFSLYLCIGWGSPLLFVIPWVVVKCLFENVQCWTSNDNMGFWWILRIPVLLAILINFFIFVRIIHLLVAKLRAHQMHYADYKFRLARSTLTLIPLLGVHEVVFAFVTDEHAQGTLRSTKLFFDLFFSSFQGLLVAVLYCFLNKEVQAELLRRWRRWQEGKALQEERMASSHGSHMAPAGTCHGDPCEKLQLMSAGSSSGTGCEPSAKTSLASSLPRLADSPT
Chain of Glucagon receptor (Rattus norvegicus) (P30082 whole entry): as above

In general, EC50 refers to the concentration giving half of the maximal effect. The term IC50 denotes the concentration at which inhibition is half-maximal. Lower therefore signals inhibition by little substance. For `CSCC[C@H](NC(=O)[C@H](CC(C)C)NC(=O)[C@H](Cc1c[nH]c2ccccc12)NC(=O)[C@H](CCC(N)=O)NC(=O)[C@@H](NC(=O)[C@H](Cc1ccccc1)NC(=O)[C@@H]1CCC(=O)NCCCC[C@H](NC(=O)[C@H](CCCCN)NC(=O)[C@H](CO)NC(=O)[C@H](CC(=O)O)NC(=O)[C@H](CC(C)C)NC(=O)[C@H](Cc2ccc(O)cc2)NC(=O)[C@H](CCCCN)NC(=O)[C@H](CO)NC(=O)[C@H](Cc2ccc(O)cc2)NC(=O)[C@H](CC(=O)O)NC(=O)[C@H](CO)NC(=O)[C@@H](NC(=O)[C@H](Cc2ccccc2)NC(=O)[C@@H](NC(=O)CNC(=O)[C@H](CCC(N)=O)NC(=O)[C@H](CO)NC(=O)[C@@H](N)Cc2c[nH]cn2)[C@@H](C)O)[C@@H](C)O)C(=O)N[C@@H](C)C(=O)N[C@@H](CCC(N)=O)C(=O)N1)C(C)C)C(=O)N[C@@H](CC(N)=O)C(=O)N[C@H](C(N)=O)[C@@H](C)O`, in assay [1], the EC50 was found to be 320 nM and the IC50 amounted to 54 nM.
Take `CSCC[C@H](NC(=O)[C@H](CC(C)C)NC(=O)[C@H](Cc1c[nH]c2ccccc12)NC(=O)[C@H](CCC(N)=O)NC(=O)[C@@H](NC(=O)[C@@H](Cc1ccccc1)NC(=O)[C@@H]1CCC(=O)NCCCC[C@H](NC(=O)[C@H](CO)NC(=O)[C@@H](CC(=O)O)NC(=O)[C@@H](CC(C)C)NC(=O)[C@H](Cc2ccc(O)cc2)NC(=O)[C@H]2CCCCNC(=O)C[C@H](NC(=O)[C@H](CO)NC(=O)[C@H](NC(=O)[C@@H](Cc3ccccc3)NC(=O)[C@H](NC(=O)CNC(=O)[C@@H](CCC(N)=O)NC(=O)[C@@H](CO)NC(=O)[C@H](N)Cc3c[nH]cn3)[C@H](C)O)[C@H](C)O)C(=O)N[C@@H](Cc3ccc(O)cc3)C(=O)N[C@H](CO)C(=O)N2)C(=O)N[C@@H](CCCCN)C(=O)N[C@H](C)C(=O)N[C@@H](CCC(N)=O)C(=O)N1)C(C)C)C(=O)N[C@@H](CC(N)=O)C(=O)N[C@H](C(N)=O)[C@@H](C)O`: the Max stimulation entry in assay [2] was “inactive”. Further, the IA entry in assay [3] was “inactive”. In assay [4], the Potency result was “Inactive up to 50 uM”.
In turn, `CSCC[C@@H](NC(=O)[C@@H](CC(C)C)NC(=O)[C@@H](Cc1c[nH]c2ccccc12)NC(=O)[C@@H](CCC(N)=O)NC(=O)[C@H](NC(=O)[C@H](Cc1ccccc1)NC(=O)[C@H]1CCC(=O)NCCCC[C@H](NC(=O)[C@H](CCCCN)NC(=O)[C@@H](CO)NC(=O)[C@@H](CC(=O)O)NC(=O)[C@@H](CC(C)C)NC(=O)[C@@H](Cc2ccc(O)cc2)NC(=O)[C@@H](CCCCN)NC(=O)[C@@H](CO)NC(=O)[C@@H](Cc2ccc(O)cc2)NC(=O)[C@@H](CC(=O)O)NC(=O)[C@@H](CO)NC(=O)[C@H](NC(=O)[C@@H](Cc2ccccc2)NC(=O)[C@H](NC(=O)CNC(=O)[C@@H](CCC(N)=O)NC(=O)[C@@H](CO)NC(=O)[C@H](N)Cc2c[nH]cn2)[C@H](C)O)[C@H](C)O)C(=O)N[C@@H](C)C(=O)N[C@H](CCC(N)=O)C(=O)N1)C(C)C)C(=O)N[C@H](CC(N)=O)C(=O)N[C@@H](C(N)=O)[C@H](C)O` gave a Potency in assay [5] of 1.6%. The compound also came in with a Max stimulation in assay [6] of 60%.
On the same counts, the results for GLUCAGON are 100% and 100%.
What is called pA2 is the negative logarithm of the molar antagonist concentration that doubles the agonist concentration needed for the same response. A high value points to higher antagonist potency. `CSCC[C@H](NC(=O)[C@H](CC(C)C)NC(=O)[C@H](Cc1c[nH]c2ccccc12)NC(=O)[C@H](CCC(N)=O)NC(=O)[C@@H](NC(=O)[C@H](Cc1ccccc1)NC(=O)[C@H](CCC(=O)O)NC(=O)[C@H](CCC(N)=O)NC(=O)[C@H](C)NC(=O)[C@H](CCCCN)NC(=O)[C@H](CCCCN)NC(=O)[C@H](CO)NC(=O)[C@H](CC(=O)O)NC(=O)[C@H](CC(C)C)NC(=O)[C@H](Cc1ccc(O)cc1)NC(=O)[C@@H]1CCCCNC(=O)C[C@H](NC(=O)[C@H](CO)NC(=O)[C@@H](NC(=O)[C@H](Cc2ccccc2)NC(=O)[C@@H](NC(=O)CNC(=O)[C@H](CCC(N)=O)NC(=O)[C@H](CO)NC(=O)[C@@H](N)Cc2cnc[nH]2)[C@@H](C)O)[C@@H](C)O)C(=O)N[C@@H](Cc2ccc(O)cc2)C(=O)N[C@@H](CO)C(=O)N1)C(C)C)C(=O)N[C@@H](CC(N)=O)C(=O)N[C@H](C(N)=O)[C@@H](C)O` (H-HSQGTFTSDYSKYLDSKKAQEFVQWLMNT-NH2; lactam 9-12) registered an IC50 in assay [1] of 250 nM. In assay [7], this compound gave a pA2 of 6.3.
